Converted amounts (≈) assume the structure as drawn.

The conditions of this series: buffer; pH 7.4; 200.0 µM.
On to `O=C(Nc1ccccc1)[C@@H]1CCCN1S(=O)(=O)c1ccc(Cl)cc1`, for which the kinetic solubility – broadly, the concentration staying in solution when a stock, usually in DMSO, is diluted into the medium – stood at 6.8 µg/mL (≈ 18.6 µM). In the case of `CN(CC(=O)NCc1ccccn1)S(=O)(=O)c1ccc(F)cc1` it was more than 50.6 µg/mL; in that of `Cc1ccc2nc(-c3ccc(Br)cc3)cn2c1`, less than 0.3 µg/mL; in that of `Cc1onc(-c2ccccc2)c1CNS(=O)(=O)c1ccc(F)cc1F`, 51.6 µg/mL (≈ 142 µM). In the case of `COc1ccc(OCC2CCNCC2)cc1.Cl` it was 36.5 µg/mL; in that of `COC(=O)c1ccsc1NC(=O)c1cccc(OC)c1`, 1.4 µg/mL (≈ 4.81 µM). In the case of `Cc1c(NS(=O)(=O)c2cc(C(=O)N(C)Cc3ccccc3)ccc2Cl)c(=O)n(-c2ccccc2)n1C` it was more than 78.8 µg/mL; in that of `O=C(O)CNc1nc(-c2ccccc2)nc2c1oc1ccccc12`, more than 47.9 µg/mL.

On to `Cc1ccc(NC(=O)Nc2ccccc2)nc1`, for which the solubility (kinetic) was 2.6 µg/mL (≈ 11.4 µM).

In turn, `CC(C(=O)NCc1cccnc1)c1ccc([N+](=O)[O-])cc1` (stereo unspecified) gave a solubility (kinetic) of more than 42.8 µg/mL. In the case of `CCOc1ccc(Nc2cc(C)nc3c(C)cccc23)cc1` it was 24.5 µg/mL (≈ 83.8 µM); in that of `CSc1ncccc1C(=O)OCC(=O)N(C)C`, more than 38.1 µg/mL; in that of `COC(=O)CNC(=O)C1CC(=O)N(CCc2ccc(F)cc2)C1` (stereo unspecified), more than 48.4 µg/mL. In the case of `COc1ccc2oc(=O)c(C(=O)NC3CCCCCC3)cc2c1` it was 2.6 µg/mL (≈ 8.24 µM). To `O=C(CNC(=O)c1ccccc1F)Nc1ccc2c(c1)CCC2` belongs 2.9 µg/mL (≈ 9.28 µM); to `COc1ccccc1NS(=O)(=O)c1cc(NC(=O)COc2ccccc2F)ccc1N1CCOCC1`, 2.4 µg/mL (≈ 4.66 µM). `O=C1Nc2ccccc2/C1=C/c1nc2ccccc2c(=O)n1-c1ccc(O)cc1` yielded a kinetic solubility of 1.9 µg/mL (≈ 4.98 µM). In the case of `O=C(CSc1cccc[n+]1[O-])NCCCc1ccccc1` it was more than 45.4 µg/mL. To `Cc1c(Cl)cccc1Nc1ncccc1C(=O)O` belongs 34 µg/mL (≈ 129 µM); to `CCN(CC)C(=S)SC1CCCCN(C(=O)c2ccc(F)cc2)C1=O` (stereo unspecified), 5.2 µg/mL (≈ 13.6 µM). To `COC(=O)/C(C#N)=C/c1c(Oc2cc(C)cc(C)c2)nc2ccccn2c1=O` belongs 1.7 µg/mL (≈ 4.53 µM); to `CCNC(=O)c1cccc(NC(=O)C2CC(=O)N(CCc3ccccc3)C2)c1` (stereo unspecified), more than 56.9 µg/mL; to `CSc1sccc1/C=N/O`, 18.2 µg/mL (≈ 105 µM). Take `O=C(COC(=O)/C=C/c1cccc([N+](=O)[O-])c1)Nc1cccnc1Cl`: the kinetic solubility is 2.1 µg/mL (≈ 5.81 µM). In the case of `NC(=O)CSc1nc(-c2ccccc2)nc2ccccc12` it was 0.7 µg/mL (≈ 2.37 µM). Turning to `CCOc1nc(Nc2ccc(OC)cc2)nc(N2CCOCC2)n1`, the solubility (kinetic) was 4.8 µg/mL (≈ 14.5 µM).

`COc1ccc(CNC(=O)CSc2nccn(-c3ccc(F)c(F)c3)c2=O)cc1` displayed a kinetic solubility of 12.4 µg/mL (≈ 29.7 µM). To `O=[N+]([O-])c1ccc2c(c1)Nc1nc3ccccc3nc1N2` belongs 1.4 µg/mL (≈ 5.01 µM). In the case of `Cc1nc([N+](=O)[O-])c(Br)n1Cc1ccccc1` it was more than 44.4 µg/mL; in that of `NC(=O)c1ccsc1NC(=O)COC(=O)/C=C/c1ccccc1[N+](=O)[O-]`, 4.3 µg/mL (≈ 11.5 µM). `NC(=S)Nc1ccc2c(c1)OCO2` yielded a solubility (kinetic) of more than 29.4 µg/mL.

For `O=C(CSc1ccccc1)NC1=NCCS1`, the solubility (kinetic) turned out to be 32.4 µg/mL (≈ 128 µM). To `Cn1cnc2cc(NCc3ccc(Cl)cc3)ccc21` belongs more than 40.8 µg/mL; to `COC(=O)c1ccccc1-c1cn(C)c2ccccc2c1=O`, more than 44 µg/mL. To `Cc1ccnc(NC(=O)Cn2c(=O)oc3ccccc32)c1` belongs 10.9 µg/mL (≈ 38.5 µM); to `O=C(Cc1ccc(Cl)cc1)NCC(=O)N1CCCCCC1`, more than 46.3 µg/mL; to `CC(=O)Nc1ccc2c3c(cccc13)C(=O)N(c1ccccc1)C2=O`, 2.3 µg/mL (≈ 6.96 µM). To `CC(=O)N/C(=C\c1ccccc1)C(=O)Nc1ccc(O)cc1` belongs more than 44.4 µg/mL; to `Cc1ccc(C(=O)Nc2ccncc2)c(C)c1`, more than 33.9 µg/mL. For `COC(=O)CSc1nc(C)cc(C)n1`, the solubility (kinetic) is more than 31.8 µg/mL. As to `CC(=O)Nc1ccc(S(=O)(=O)NCCC(=O)NC(C)c2cccs2)cc1` (stereo unspecified), the solubility (kinetic) was more than 59.3 µg/mL.

Source of the values: PubChem BioAssay AID1996.
